The values that follow come from patent US20260023087A1, “A Novel Chemogenetic Tool Permitting Modulation of Intracellular pH” (ISTANBUL MEDIPOL UNIVERSITESI, priority 2023, published 2026).

Experiment [1] deals with T1, DsRed-stDCyD (Salmonella typhimurium, UniProt Q8ZNT7).
T1 construct: expressed in transfected cells; host or cells: HEK293 / HEK293T
Briefly: SypHer3s live-cell imaging of intracellular pH in HEK293T cells expressing pH-Control, substrates administered. The format is cell-based, human. The following applies: for selectivity test: enzyme response in comparison to βCDA: FIG. 1f; for ability to acidify cell compartments: cells expressing stDCyD. As for the experimental part:
(§1) For live-cell imaging experiments, a HEPES-buffered physiological solution was used consisting of 2 mM CaCl2, 5 mM KCl, 138 mM NaCl, 1 mM MgCl2, 10 mM HEPES, 10 mM D-Glucose, and pH was adjusted to 7.43 using 1 M NaOH. For experiments with nigericin (N7143, Merck) and monensin (M5273, Merck), imaging buffered contained 5 mM KCl, 138 mM NaCl, 1 mM MgCl2, 20 mM HEPES, 10 mM D-Glucose, 0.2 mM EGTA and pH was adjusted to the desired value using either 1 M NaOH or 1M HCl. To prepare β-Chloro-D-alanine solutions, the powder was dissolved in imaging buffer and the pH was readjusted to 7.43.
(§2) Characterization studies have been performed in cultured human embryonic kidney cells (HEK293), grown in a high-glucose (4.5 g/L) complete medium including 10% FBS and 100 μg/ml streptomycin and 100 U/ml penicillin in a humidified incubator (37° C., 5% CO2). 24 hours before transfection, cells were seeded (˜3×10^5 cells per well) on a 30 mm glass coverslips No.1 (Glaswarenfabrik Karl Knecht Sondheim, Germany). At ˜70-80% confluency, cells were co-transfected with CMV-driven mammalian expression vectors (pLenti-MP2) encoding for differential targeted SypHer3s or DsRed-stDCyD enzymes using PolyJet transfection reagent according to the manufacturer's instructions. All imaging experiments were performed 24 h after transfection. HEK293T cells were cultured up to passage 30.
Widefield imaging experiments were performed on a Zeiss Axio Observer.Z1/7 (Carl Zeiss AG, Oberkochen, Germany) equipped with an LED light source Colibri 7 (423/44 nm, 469/38 nm, 555/30), PlanApochromat 20x/0.8 dry objective, Plan-Apochromat 40x/1.4 oil immersion objective, a monochrome CCD camera Axiocam 503. A custom-made pump-driven perfusion system was used to administrate and withdraw substrates to cells placed in a metal perfusion chamber (NGFI, Graz, Austria). SypHer signals were imaged by alternately exciting cells using a motorized dual-filter wheel equipped with beam splitters (FT455 (for SypHer low, F420) and FT495 (for SypHer high, F490)). Emissions were alternately collected using a bandpass filter (BP 525/50). DsRed-stDyCD emission was collected using the filter combinations FT570 (BS) and emission filter 605/70. During live-imaging data acquisition was performed using Zen Blue 3.1 Pro software (Carl Zeiss AG, Oberkochen, Germany). Confocal imaging was performed using a laser scanning confocal microscope LSM 800 (Zeiss, Germany) equipped with a Plan-Apochromat 40x/1.3 DIC (UV) VIS-IS oil immersion objective. SypHer biosensors were excited with a 488 nm and 405 nm laser, and emissions were collected using a 509 nm filter system. SypHer signals were acquired with an A GaAsP-PMT detector and 400-565 nm filter using a Multialkali-PMT detector. DsRed-stDCyD constructs were excited using a 561 nm laser, and the emission wavelength was captured between 616 and 700 nm. The digital detector gain for all channels was set at 1; detector gain was applied between 500 and 1000 V. Laser intensities were set between 0.90% and 0.95%, and the pinhole was set between 29 and 32 μm according to the expression level of the fluorescent proteins. Bright-field mode was imaged using a photodiode detector. Zen Blue 3.1 software (Zeiss, Germany) was used to determine regions of interest.

Experiment [2] relates to HEK293T cells. Briefly: Overcorrection of intracellular pH after acute acidification, with and without monensin and nigericin. The format is cell-based, human. To be noted: 10 μM nigericin and 10 μM monensin together. How it is done: FIG. 7. Overcorrection of intracellular pH levels following acute acidification. (left) Real-time traces of HEK293T cells expressing SypHer and pH-Control in response to 1 mM βCDA in the presence (pink curve and (right) bars, n= 3/15) and absence (green curve and (right) bars n= 3/13) 10 μM nigericin and 10 μM monensin that permeabilize the plasma membrane. Student's t-test has been applied.
as §1
Widefield imaging experiments were performed on a Zeiss Axio Observer.Z1/7 (Carl Zeiss AG, Oberkochen, Germany) equipped with an LED light source Colibri 7 (423/44 nm, 469/38 nm, 555/30), PlanApochromat 20x/0.8 dry objective, Plan-Apochromat 40x/1.4 oil immersion objective, a monochrome CCD camera Axiocam 503. […]

Experiment [3] concerns mouse primary dorsal root ganglion (DRG) neurons. Briefly: Membrane potential imaging with voltage sensor ASAP2s in DRG neurons co-expressing pH-Control. The following applies: 10 mM βCDA versus high extracellular potassium (50 mM). It is filed as cell-based. As for the experimental part: (§3) Primary Neuron Culture: WT C57BL/6 mice were euthanized via cervical dislocation. Bilateral DRGs from all segments were dissected and then put in an ice-cold RPMI 1640 medium (R0883, Gibco). For enzymatic dissociation, ganglia were incubated with 100 U/mL collagenases (C9407, Sigma) in a neural medium containing 2% B27 (17504-044, Gibco), 2 mM Glutamax-I (35050-61, Gibco), 100 U penicillin, and […] (15140-122, Gibco) in Neural Basal Medium (NBA, 10888-022, Gibco) at 37C, 5% CO2. Following a 40 min incubation time, the medium containing collagenase was removed, and the ganglia were washed using Hank's buffered salt solution (H9269, Sigma). The ganglia were further enzymatically dissociated using 1 mg/mL trypsin (25300-054, Gibco) in the neural medium for 15 min at 37° C., 5% CO2. At the end of incubation, […] DNAse (D4513, Sigma) was added to the trypsin solution cell suspension to inhibit free DNA fragments, and the tissues were triturated by pipetting to obtain single cells. 30 min after incubation at 37° C., 5% CO2, the cell suspension was spun at 120 g for 3 min and resuspended neural medium supplemented with 10% fetal calf serum and […] trypsin inhibitor (T6522, Sigma) to inhibit enzymatic activity. […]

Experiment [4] has as its system HEK293T cells. Briefly: SypHer3s live-cell imaging of intracellular pH in cells without the enzyme. The format is cell-based, human. How it is done:
as §1
as §2, with “30. […]” for “30.”

The subject of experiment [5] is mouse primary dorsal root ganglion (DRG) neurons. Briefly: SypHer3s imaging in primary DRG neurons expressing pH-Control. It is filed as cell-based. The following applies: different concentrations (10 or 1 mM, FIG. 1h). How it is done:
as §3

T1 sequence (Q8ZNT7 whole entry, added parts left off): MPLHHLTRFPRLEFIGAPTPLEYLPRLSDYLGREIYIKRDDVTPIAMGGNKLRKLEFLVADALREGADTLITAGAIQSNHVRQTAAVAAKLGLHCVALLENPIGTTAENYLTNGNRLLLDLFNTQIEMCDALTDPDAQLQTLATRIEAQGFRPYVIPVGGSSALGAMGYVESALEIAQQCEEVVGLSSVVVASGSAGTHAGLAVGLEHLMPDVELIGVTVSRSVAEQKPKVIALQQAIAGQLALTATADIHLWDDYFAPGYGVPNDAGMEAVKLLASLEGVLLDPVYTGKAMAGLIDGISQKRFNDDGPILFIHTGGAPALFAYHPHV

As for `N[C@H](CS)C(=O)O` [D-Cysteine], in experiment [1] (10 mM), the “decrease in pHi” value is “marginal decrease in pHi”.
For the molecule `C[C@@H](N)C(=O)O` [D-alanine], in experiment [1], the “selectivity test: enzyme response in comparison to βCDA” value was “remained agnostic” and the “ability to acidify cell compartments” value is given as “not”.
As for `CC[C@@]1([C@@H]2O[C@@H]([C@H]3O[C@@](O)(CO)[C@H](C)C[C@@H]3C)C[C@@H]2C)CC[C@H]([C@]2(C)CC[C@]3(C[C@H](O)[C@@H](C)[C@@H]([C@@H](C)[C@@H](OC)[C@H](C)C(=O)O)O3)O2)O1` [monensin], in experiment [2], the “intracellular pH overcorrection after withdrawal of 1 mM βCDA” value is reported as “diminished”.
Turning to `CO[C@@H]1C[C@@H](C[C@H]2CC[C@H](C)[C@H]([C@@H](C)C(=O)O)O2)O[C@]2(O[C@](C)([C@H]3CC[C@@](C)([C@@H]4O[C@@H]([C@H]5O[C@@](O)(CO)[C@H](C)C[C@@H]5C)C[C@@H]4C)O3)C[C@H]2C)[C@@H]1C` [nigericin], the “intracellular pH overcorrection after withdrawal of 1 mM βCDA” value in experiment [2] is on record as “diminished”.
In the case of `N[C@H](CCl)C(=O)O` [βCDA, β-chloro-D-alanine], in experiment [3], the “depolarization of membrane potential (ASAP2s)” value is “depolarized primary neurons even stronger than high extracellular potassium”. Further, the “biosensor signal after withdrawal of substrate” value in experiment [1] (after recovery, indicates cellular alkalization (FIGS. 1c, 1g, 5a)) is on record as “overshot the baseline”. Besides, in experiment [1] (cells expressing pH-Control, constitutive administration of different levels (FIG. 1e)), the “SypHer response to different levels of substrate” value was “concentration-dependent and fully reversible SypHer response”. Further, in experiment [1] (cells expressing pH-Control, high concentrations of βCDA (13.4 mM, FIG. 1c)), the “intracellular acidification documented by SypHer3s” value is listed as “robust intracellular acidification”. Besides, the “ability to acidify cell compartments” value in experiment [1] is recorded as “can acidify cell compartments”. Further, the “SypHer response of cells only expressing SypHer” value in experiment [4] (different levels of substrate (FIG. 1e, right panel)) was “remained unresponsive”. The “SypHer3s response of wild-type cells without the enzyme” value in experiment [4] (same high-concentration treatment (13.4 mM, FIG. 1c)) is given as “marginal response”. The “SypHer3s signals in DRG neurons” value in experiment [5] is recorded as “robust SypHer3s signals”.
For the molecule `N[C@@H](CCl)C(=O)O` [βCLA, β-chloro-L-alanine], in experiment [1], the “selectivity test: enzyme response in comparison to βCDA” value is on record as “marginal responses”.
